{"source": "patent US11800869B2", "about": "“Use of 6-oxo-1,4,5,6-tetrahydropyridazine-3-carboxylic acid, 1-methyl 6-oxo-1,4,5,6-tetrahydropyridazine-3-carboxylic acid and 1-alkyl-6-oxo-1,4,5,6-tetrahydropyridazine-3-carboxylic acid for improving growth performance in plants” (Advanced Crop Chem LLP, priority 2020, dated 2023)", "format_in_all_cases": "in vivo", "key": {"[1]": {"tested_on": "Corn", "test": "Seed treatment plus foliar spray, root and shoot biomass and emergence, corn (Example 2)", "description": "Winter wheat variety AWC 13 seeds were treated with either 6-oxo-1,4,5,6-tetrahydropyridazine-3-carboxylic acid (THP) or 1-methyl 6-oxo-1,4,5,6 tetrahydropyridazine-3-carboxylic acid (MTHP) at an effective rate of 10g diluted in 2 L water plus 0.25% Nouryon wetter and applied to 1 ton of seed. These seed were planted in coarse river sand and grown in a greenhouse under ambient light at the greenhouse at 21° C. Plants were irrigated every other day with water containing 50% strength Hoaglands solution. Plants were assessed for emergence and biomass accumulation 30 days after planting. The plants from seeds treated with 6-oxo-1,4,5,6-tetrahydropyridizin-3-carboxylic acid or 1-methyl 6-oxo-1,4,5,6 tetrahydropyridazine-3-carboxylic acid had larger root biomasses (0.83, 0.85 g, dry weight/plant) compared with plants from untreated seeds (0.65 g dry weight/plant). Wheat, corn and pepper seeds were treated with 6-oxo-1,4,5,6-tetrahydropyridizine-3-carboxylic acid (THP) using the same methodology and growth conditions as described in example 1 and the resulting plants were also treated with a light foliar cover spray using an electric hand-held sprayer. (100 g in 200 L water plus 0.25% Nouryon wetter) of 6-oxo-1,4,5,6 tetrahydropyridazine-3-carboxylic acid (30 days post emergence (wheat at Zadoks GS 14 (see FIG. 1), maize at V2, Pepper at 3-4 leaf stage) and then assessed for root and shoot biomass 45 days later. At 75 days post planting the plants were assessed for root and shoot biomass as measured with dry weight."}, "[2]": {"tested_on": "Winter wheat variety AWC 13", "test": "Wheat seed treatment, greenhouse, root biomass (Example 1)", "conditions": "seed treatment 10g per 1 ton of seed; greenhouse 21° C; 30 days after planting; untreated 0.65", "description": "Wheat seeds were treated with 6-oxo-1,4,5,6 tetrahydropyridazine-3-carboxylic acid (THP) and treated plants to examine the impact on shoot and root biomass. Winter wheat variety AWC 13 seeds were treated with either 6-oxo-1,4,5,6-tetrahydropyridazine-3-carboxylic acid (THP) or 1-methyl 6-oxo-1,4,5,6 tetrahydropyridazine-3-carboxylic acid (MTHP) at an effective rate of 10g diluted in 2 L water plus 0.25% Nouryon wetter and applied to 1 ton of seed. These seed were planted in coarse river sand and grown in a greenhouse under ambient light at the greenhouse at 21° C. Plants were irrigated every other day with water containing 50% strength Hoaglands solution. Plants were assessed for emergence and biomass accumulation 30 days after planting. The plants from seeds treated with 6-oxo-1,4,5,6-tetrahydropyridizin-3-carboxylic acid or 1-methyl 6-oxo-1,4,5,6 tetrahydropyridazine-3-carboxylic acid had larger root biomasses (0.83, 0.85 g, dry weight/plant) compared with plants from untreated seeds (0.65 g dry weight/plant)."}, "[3]": {"tested_on": "field grown wheat", "test": "Field grown wheat plots, foliar treatment, yield (Example 12)", "conditions": "foliar treatment at Zadocks GS 30", "description": "Field grown wheat plants (Var: AWC 13) were given foliar treatment at Zadoks GS 25-26 (FIG. 1) of 6-oxo-1,4,5,6 tetrahydropyridazine-3-carboxylic acid (THP) or 1-methyl 6-oxo-1,4,5,6 tetrahydropyridazine-3-carboxylic acid (MTHP) both at 100 g in 200 L water plus 0.25% Nouryon wetter. Plants were grown under standard UK wheat growing cultural practice (https://andb.org.uk/wheatgg). Yield was assessed at harvest.\nNine field grown wheat plots (20 m^2) were established. In each plot, the area was split into two and one half treated with 6-oxo-1,4,5,6 tetrahydropyridazine-3-carboxylic acid (THP) to assess for effects on yield. Plants were treated at Zadocks GS 30 as described in example 6 under standard cultural practices. The average yield response compared to the untreated plants across all sites was 0.596 tons per hectare."}, "[4]": {"tested_on": "Corn", "test": "Foliar treatment dose series, root and shoot fresh weight, corn (Example 8)", "conditions": "35 days post treatment; for Root, FWt: dose 0: 2.3; for Shoot, FWt: dose 0: 6.1", "description": "Corn and wheat plants were given a foliar treatment […] (as described in Example 2) with 6-oxo-1,4,5,6 tetrahydropyridazine-3-carboxylic acid (THP) and then assessed for root and shoot biomass. Three treatment dosages were applied (Table 2). Plants were grown in a greenhouse with a diurnal cycle of 55-75F with ambient light. The plants were grown in a coarse river sand in 4″ pots with 0.5 g of Osmacote/pot. The mean root and shoot fresh weights were assessed at 35 days post treatment."}, "[5]": {"tested_on": "wheat (Var. VitPro) seedlings", "test": "Foliar treatment of wheat, relative water content under drought stress (Example 17)", "conditions": "drought stressed, flag leaves, untreated drought stressed 35.8%", "description": "Wheat seedlings were given foliar treatments with a range of concentrations of 6-oxo-1,4,5,6 tetrahydropyridazine-3-carboxylic acid and the seedlings were grown to near maturity and drought stressed. Their relative water contents were determined to examine the effectiveness of different concentrations of 6-oxo-1,4,5,6-tetrahydropyridizine-3-carboxylic acid in conferring drought resistance.\nSets of wheat (Var. VitPro) seedlings were given foliar treatments of 6-oxo-1,4,5,6 tetrahydropyridazine-3-carboxylic acid at concentrations of 1 mM or 0.1 mM in aqueous solutions. Two treatments were made; one at Zaddok GS 12(FIG. 1) and a second at Zadoks GS 14 (FIG. 1) and the plants grown until the first flag leaf was fully developed on the control plants. The treated plants and one set of controls were then drought stressed and the relative water content was determined for each set of plants. There were two sets of control plants; one was maintained with normal watering and a second control was drought stressed along with the treated plants. When each of the plants had at least two wilted leaves the water content of the drought stressed plants was determined relative to that of the normal, well-watered control plants. The flag leaves were harvested and used to determine the relative water content."}, "[6]": {"tested_on": "Soybean seeds, cv. Viking", "test": "Soybean seed treatment, root nodulation by Bradyrhizobium japonicum (Example 19)", "conditions": "seed treatment 0.1 mM; greenhouse 75° F; 4 weeks after planting; untreated 655.8 mg", "description": "Soybean seed were treated with 6-oxo-1,4,5,6 tetrahydropyridazine-3-carboxylic acid to examine the effect on root nodulation by a nitrogen fixing bacterium.\nSoybean seeds, cv. Viking, were treated with 6-oxo-1,4,5,6 tetrahydropyridazine-3-carboxylic acid (0.1 mM) and the resulting seedlings were grown in a greenhouse at 75° F. under natural light during a winter season. The extent of root nodulation by Bradyrhizobium japonicum, a nitrogen fixing bacterium was determined 4 weeks after planting. Plants from the untreated seeds averaged 655.8 mg of nodules per plant versus 763.7 mg for the plants from treated seeds."}, "[7]": {"conditions": "seed treatment plus foliar spray 100 g in 200 L, 75 days post planting"}, "[8]": {"conditions": "foliar dose 50 g/ha in 200 L/ha"}, "[9]": {"conditions": "foliar dose 100 g/ha in 200 L/ha"}, "[10]": {"conditions": "foliar dose 200 g/ha in 200 L/ha"}}, "note": "Marks after values point to notes of the source that are not given here.", "data": [{"smiles": "O=C1CCC(C(=O)O)=NN1", "note": "[THP, 6-oxo-1,4,5,6 tetrahydropyridazine-3-carboxylic acid]", "values": [{"measurement": "Root Dry Weight, % Difference vs Untreated", "setting": "[1]; [7]", "result": 8, "unit": "%"}, {"measurement": "Shoot Dry Weight, % Difference vs Untreated", "setting": "[1]; [7]", "result": 3, "unit": "%"}, {"measurement": "Emergence, % Difference vs Untreated", "setting": "[1]; seed treatment, % Emergence at 10 days post planting", "result": 11, "unit": "%"}, {"measurement": "root biomass", "setting": "[2]", "result": "0.83 g, dry weight/plant"}, {"measurement": "Yield as Percent Increase over Untreated", "setting": "[3]; Field 1", "result": "6.25* %"}, {"measurement": "Yield as Percent Increase over Untreated", "setting": "[3]; Field 2", "result": "8.7* %"}, {"measurement": "Yield as Percent Increase over Untreated", "setting": "[3]; Field 3", "result": "−0.3", "unit": "%"}, {"measurement": "Yield as Percent Increase over Untreated", "setting": "[3]; Field 4", "result": "13.9* %"}, {"measurement": "Yield as Percent Increase over Untreated", "setting": "[3]; Field 5", "result": 3.0, "unit": "%"}, {"measurement": "Yield as Percent Increase over Untreated", "setting": "[3]; Field 6", "result": 3.3, "unit": "%"}, {"measurement": "Yield as Percent Increase over Untreated", "setting": "[3]; Field 7", "result": 6.5, "unit": "%"}, {"measurement": "Yield as Percent Increase over Untreated", "setting": "[3]; Field 8", "result": "9.8* %"}, {"measurement": "Yield as Percent Increase over Untreated", "setting": "[3]; Field 9", "result": "8.1* %"}, {"measurement": "average yield response compared to the untreated plants across all sites", "setting": "[3]; nine field plots", "result": 0.596, "unit": "tons per hectare"}, {"measurement": "Root, FWt", "setting": "[4]; [8]", "result": 2.7, "unit": "g"}, {"measurement": "Shoot, FWt", "setting": "[4]; [8]", "result": 7.8, "unit": "g"}, {"measurement": "Root, FWt", "setting": "[4]; [9]", "result": 3.4, "unit": "g"}, {"measurement": "Shoot, FWt", "setting": "[4]; [9]", "result": 7.2, "unit": "g"}, {"measurement": "Root, FWt", "setting": "[4]; [10]", "result": 1.8, "unit": "g"}, {"measurement": "Shoot, FWt", "setting": "[4]; [10]", "result": 5.1, "unit": "g"}, {"measurement": "water content retained, relative to normally watered plants", "setting": "[5]; two foliar treatments 0.1 mM", "result": 67.7, "unit": "%"}, {"measurement": "water content retained, relative to normally watered plants", "setting": "[5]; two foliar treatments 1 mM", "result": 68.3, "unit": "%"}, {"measurement": "nodules per plant", "setting": "[6]", "result": 763.7, "unit": "mg"}]}]}
